In ChEMBL document CHEMBL5053516, “Cinchona Alkaloid-Inspired Urea-Containing Autophagy Inhibitor Shows Single-Agent Anticancer Efficacy” (J Med Chem, 2021):
pIC50: −log10 of the molar value. Values belong to the compound of their own block, whether it stands above or below them. Activity calls are given as the source filed them. No cut-off for these calls is given here.

What was measured:
HepG2 = assay: Cytotoxicity against human HepG2 cells assessed as cell viability by MTT assay; type: functional, cell-based
Hep 3B2 [1] = assay: Cytotoxicity against human Hep3B cells assessed as cell viability by MTT assay; type: functional, cell-based
[2] = Cytotoxicity against mouse FL83B cells assessed as cell viability by MTT assay; type: cell-based
[3] = Cytotoxicity against human JHH7 cells assessed as cell viability by MTT assay; type: functional, cell-based
[4] = Cytotoxicity against mouse HCA1 cells assessed as cell viability by MTT assay; type: functional, cell-based
Mahlavu [5] = assay: Cytotoxicity against human Mahlavu cells assessed as cell viability by MTT assay; type: functional, cell-based
HCA1 [6] = assay: Downregulation of Akt expression in mouse HCA1 cells by Western blot analysis; type: functional, cell-based
HCA1 [7] = assay: Inhibition of autophagy in mouse HCA1 cells assessed as increase in LC3-II measured at 0.1 to 0.5 uM by Western blot analysis; type: functional, cell-based; details: dose 0.1-0.5 µM, time 2-6 hrs, TDE = time-dependent effect
Hep 3B2 [8] = assay: Inhibition of autophagy in human Hep3B cells assessed as increase in LC3-II measured after 2 to 6 hrs by Western blot analysis; type: functional, cell-based; details: time 2-6 hrs
HCA1 [9] = assay: Inhibition of autophagy in mouse HCA1 cells assessed as increase in LC3-II measured after 2 to 6 hrs by Western blot analysis; type: functional, cell-based; details: time 2-6 hrs
[10] = target: Serine/threonine-protein kinase AKT (Homo sapiens) (UniProt P31751+Q9Y243+P31749); assay: Inhibition of Akt phosphorylation in human Hep3B cells by Western blot analysis; type: cell-based
Chain of Serine/threonine-protein kinase AKT (Homo sapiens) (P31749 whole entry, looked up): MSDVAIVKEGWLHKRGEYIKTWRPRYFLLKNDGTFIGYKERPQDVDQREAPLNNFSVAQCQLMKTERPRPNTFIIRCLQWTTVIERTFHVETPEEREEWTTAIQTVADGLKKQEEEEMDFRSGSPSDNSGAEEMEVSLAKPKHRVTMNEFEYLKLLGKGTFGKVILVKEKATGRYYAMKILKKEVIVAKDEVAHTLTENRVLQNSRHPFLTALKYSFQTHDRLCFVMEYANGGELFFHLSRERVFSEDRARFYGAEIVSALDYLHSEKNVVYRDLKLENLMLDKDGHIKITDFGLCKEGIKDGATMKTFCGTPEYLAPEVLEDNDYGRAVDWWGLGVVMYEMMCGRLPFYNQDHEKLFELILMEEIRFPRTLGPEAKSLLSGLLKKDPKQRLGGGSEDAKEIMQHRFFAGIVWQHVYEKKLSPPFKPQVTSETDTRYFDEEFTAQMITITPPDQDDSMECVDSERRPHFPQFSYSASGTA
Chain of Serine/threonine-protein kinase AKT (Homo sapiens) (P31751 whole entry, looked up): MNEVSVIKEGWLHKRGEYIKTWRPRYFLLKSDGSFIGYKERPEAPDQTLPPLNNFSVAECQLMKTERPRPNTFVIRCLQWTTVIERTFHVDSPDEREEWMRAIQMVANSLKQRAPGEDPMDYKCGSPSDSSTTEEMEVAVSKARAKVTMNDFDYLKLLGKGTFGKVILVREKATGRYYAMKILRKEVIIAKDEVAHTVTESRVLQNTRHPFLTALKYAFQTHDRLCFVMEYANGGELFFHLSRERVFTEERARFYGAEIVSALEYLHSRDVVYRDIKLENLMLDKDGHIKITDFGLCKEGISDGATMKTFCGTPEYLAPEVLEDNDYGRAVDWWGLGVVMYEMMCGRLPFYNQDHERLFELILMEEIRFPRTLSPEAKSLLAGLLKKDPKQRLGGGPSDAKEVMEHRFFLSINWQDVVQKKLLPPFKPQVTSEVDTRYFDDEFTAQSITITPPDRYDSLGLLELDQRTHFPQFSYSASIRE
Chain of Serine/threonine-protein kinase AKT (Homo sapiens) (Q9Y243 whole entry, looked up): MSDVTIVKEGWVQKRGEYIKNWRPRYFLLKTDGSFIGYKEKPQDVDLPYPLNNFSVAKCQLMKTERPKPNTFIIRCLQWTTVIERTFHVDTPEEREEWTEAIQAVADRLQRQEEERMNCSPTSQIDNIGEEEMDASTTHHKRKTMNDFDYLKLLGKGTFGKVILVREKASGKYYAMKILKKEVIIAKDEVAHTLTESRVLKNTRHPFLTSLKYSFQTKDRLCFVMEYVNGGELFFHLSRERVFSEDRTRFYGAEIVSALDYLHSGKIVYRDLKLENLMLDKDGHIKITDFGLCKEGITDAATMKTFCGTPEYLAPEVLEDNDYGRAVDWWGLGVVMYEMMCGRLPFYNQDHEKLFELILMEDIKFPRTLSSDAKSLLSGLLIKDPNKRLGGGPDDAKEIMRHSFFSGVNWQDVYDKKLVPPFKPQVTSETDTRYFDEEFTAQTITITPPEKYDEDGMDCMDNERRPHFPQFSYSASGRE

Mahlavu [11] = assay: Reduction in p53 expression in human Mahlavu cells by Western blot analysis; type: functional, cell-based
Mahlavu [12] = assay: Inhibition of autophagy in human Mahlavu cells assessed as increase in LC3-II measured at 0.1 to 0.5 uM by Western blot analysis; type: functional, cell-based; details: dose 0.1-0.5 µM, time 2-6 hrs, TDE = time-dependent effect
Mahlavu [13] = assay: Inhibition of autophagy in human Mahlavu cells assessed as increase in p62 expression measured at 0.1 to 0.5 uM by Western blot analysis; type: functional, cell-based; details: dose 0.1-0.5 µM, time 2-6 hrs, TDE = time-dependent effect
HCA1 [14] = assay: Induction of apoptosis in mouse HCA1 cells after 16 hrs using annexin V/PI staining assay; type: functional, cell-based
Hep 3B2 [15] = assay: Inhibition of autophagy in human Hep3B cells assessed as increase in p62 expression measured after 2 to 6 hrs by Western blot analysis; type: functional, cell-based; details: time 2-6 hrs
HCA1 [16] = assay: Inhibition of autophagy in mouse HCA1 cells assessed as increase in p62 expression measured after 2 to 6 hrs by Western blot analysis; type: functional, cell-based; details: time 2-6 hrs
HCA1 [17] = assay: Induction of apoptosis in mouse HCA1 cells assessed as increase in cleaved caspase 3 measured after 2 hrs by Western blot analysis; type: functional, cell-based
HCA1 [18] = assay: Effect on LC3-I expression in mouse HCA1 cells at 0.5 uM by Western blot analysis; type: functional, cell-based
Mahlavu [19] = assay: Induction of apoptosis in human Mahlavu cells assessed as increase in cleaved caspase 3 measured after 2 hrs by Western blot analysis; type: functional, cell-based
Mahlavu [20] = assay: Inhibition of autophagy in human Mahlavu cells assessed as increase in LC3-II measured after 2 to 6 hrs by Western blot analysis; type: functional, cell-based; details: time 2-6 hrs
Mahlavu [21] = assay: Effect on LC3-I expression in human Mahlavu cells at 0.5 uM by Western blot analysis; type: functional, cell-based
Mahlavu [22] = assay: Inhibition of autophagosome-lysosome fusion in human Mahlavu cells assessed as number of LC3 puncta at 1 uM for 2 hrs by immunofluorescence assay; type: functional, cell-based
HCA1 [23] = assay: Reduction in Bcl-xL expression in mouse HCA1 cells by Western blot analysis; type: functional, cell-based
Mahlavu [24] = assay: Induction of apoptosis in human Mahlavu cells after 16 hrs using annexin V/PI staining assay; type: functional, cell-based
HCA1 [25] = assay: Inhibition of autophagy in mouse HCA1 cells assessed as increase in p62 expression measured at 0.1 to 0.5 uM by Western blot analysis; type: functional, cell-based; details: dose 0.1-0.5 µM, time 2-6 hrs, TDE = time-dependent effect
Mahlavu [26] = assay: Reduction in Bcl-xL expression in human Mahlavu cells by Western blot analysis; type: functional, cell-based
Mahlavu [27] = assay: Downregulation of Akt expression in human Mahlavu cells by Western blot analysis; type: functional, cell-based
Hep 3B2 [28] = assay: Inhibition of autophagy in human Hep3B cells assessed as increase in p62 expression measured at 0.1 to 0.5 uM by Western blot analysis; type: functional, cell-based; details: dose 0.1-0.5 µM, time 2-6 hrs, TDE = time-dependent effect
Hep 3B2 [29] = assay: Inhibition of autophagy in human Hep3B cells assessed as increase in LC3-II measured at 0.1 to 0.5 uM by Western blot analysis; type: functional, cell-based; details: dose 0.1-0.5 µM, time 2-6 hrs, TDE = time-dependent effect
Hep 3B2 [30] = assay: Effect on LC3-I expression in human Hep3B cells at 0.5 uM by Western blot analysis; type: functional, cell-based
Mahlavu [31] = assay: Inhibition of autophagy in human Mahlavu cells assessed as increase in p62 expression measured after 2 to 6 hrs by Western blot analysis; type: functional, cell-based; details: time 2-6 hrs
HCA1 [32] = assay: Inhibition of autophagosome-lysosome fusion in mouse HCA1 cells assessed as number of LC3 puncta at 1 uM for 2 hrs by immunofluorescence assay; type: functional, cell-based

SMILES: C=CC1CN2CCC1C[C@H]2[C@@H](NC(=O)Nc1cc(C)cc(C)c1)c1ccnc2ccc(OC)cc12 (some centres undefined)
pIC50 (HepG2): 5.29
pIC50 (Hep 3B2 [1]): 5.29
pIC50 [2]: < 5.00
pIC50 [3]: 5.14
pIC50 [4]: < 5.00
pIC50 (Mahlavu [5]): < 5.00

SMILES: C=CC1CN2CCC1C[C@H]2[C@@H](NC(=O)Nc1cc(OC)cc(OC)c1)c1ccnc2ccc(OC)cc12 (some centres undefined)
pIC50 (HepG2): 5.29
pIC50 (Hep 3B2 [1]): 5.45
pIC50 [2]: 5.07
pIC50 [3]: 5.23
pIC50 [4]: 5.65
pIC50 (Mahlavu [5]): 5.42

SMILES: C=CC1CN2CCC1C[C@H]2[C@@H](NC(=O)Nc1cccc(C(F)(F)F)c1)c1ccnc2ccc(OC)cc12 (some centres undefined)
pIC50 (HepG2): < 5.00
pIC50 (Hep 3B2 [1]): 5.79
pIC50 [2]: < 5.00
pIC50 [3]: 5.19
pIC50 [4]: 5.83
pIC50 (Mahlavu [5]): 5.21

SMILES: C=CC1CN2CCC1CC2[C@@H](NC(=O)Nc1ccc(F)cc1)c1ccnc2ccc(OC)cc12 (some centres undefined)
pIC50 (HepG2): 5.23
pIC50 (Hep 3B2 [1]): 5.70
pIC50 [2]: 5.41
pIC50 [3]: < 5.00
pIC50 [4]: 5.55
pIC50 (Mahlavu [5]): 5.44

SMILES: C=CC1CN2CCC1C[C@H]2[C@@H](NC(=O)Nc1ccc(OC)cc1)c1ccnc2ccc(OC)cc12 (some centres undefined)
pIC50 (HepG2): 5.02
pIC50 (Hep 3B2 [1]): 5.00
pIC50 [2]: < 5.00
pIC50 [3]: < 5.00
pIC50 [4]: 5.23
pIC50 (Mahlavu [5]): 5.20

SMILES: CCN(CC)CCCC(C)Nc1ccnc2cc(Cl)ccc12 (centres undefined) [CHLOROQUINE]
pIC50 (HepG2): < 5.00
pIC50 (Hep 3B2 [1]): < 5.00
pIC50 [2]: < 5.00
pIC50 [3]: < 5.00
pIC50 [4]: < 5.00
pIC50 (Mahlavu [5]): < 5.00

SMILES: C=CC1CN2CCC1CC2[C@@H](NC(=O)Nc1ccccc1)c1ccnc2ccc(OC)cc12 (some centres undefined)
pIC50 (HepG2): 5.06
pIC50 (Hep 3B2 [1]): < 5.00
pIC50 [2]: < 5.00
pIC50 [3]: < 5.00
pIC50 [4]: < 5.00
pIC50 (Mahlavu [5]): 5.40

SMILES: C=CC1CN2CCC1C[C@H]2[C@@H](NC(=O)Nc1ccccc1C(F)(F)F)c1ccnc2ccc(OC)cc12 (some centres undefined)
pIC50 (HepG2): < 5.00
pIC50 (Hep 3B2 [1]): 5.52
pIC50 [2]: < 5.00
pIC50 [3]: < 5.00
pIC50 [4]: 5.24
pIC50 (Mahlavu [5]): 5.19

inhibition [10]: Active
SMILES: C=CC1CN2CCC1CC2[C@@H](NC(=O)Nc1cc(C(F)(F)F)cc(C(F)(F)F)c1)c1ccnc2ccc(OC)cc12 (some centres undefined)
Activity (HCA1 [6]): Active
Activity (HCA1 [7]): Tde
pIC50 (HepG2): 6.16
Activity (Hep 3B2 [8]): Dose-dependent effect
Activity (HCA1 [9]): Dose-dependent effect
pIC50 (Hep 3B2 [1]): 6.57
Activity (Mahlavu [11]): Active
Activity (Mahlavu [12]): Tde
Activity (Mahlavu [13]): Tde
Activity (HCA1 [14]): Dose-dependent effect
pIC50 [2]: 6.14
Activity (Hep 3B2 [15]): Dose-dependent effect
Activity (HCA1 [16]): Dose-dependent effect
Activity (HCA1 [17]): Active
pIC50 [3]: 6.57
Activity (HCA1 [18]): Active
Activity (Mahlavu [19]): Active
Activity (Mahlavu [20]): Dose-dependent effect
Activity (Mahlavu [21]): inactive
Activity (Mahlavu [22]): Active
pIC50 [4]: 6.64
Activity (HCA1 [23]): Active
pIC50 (Mahlavu [5]): 6.89
Activity (Mahlavu [24]): Dose-dependent effect
Activity (HCA1 [25]): Tde
Activity (Mahlavu [26]): Active
Activity (Mahlavu [27]): Active
Activity (Hep 3B2 [28]): Tde
Activity (Hep 3B2 [29]): Tde
Activity (Hep 3B2 [30]): inactive
Activity (Mahlavu [31]): Dose-dependent effect
Activity (HCA1 [32]): Active

SMILES: C=CC1CN2CCC1CC2[C@H](NC(=O)Nc1cc(C(F)(F)F)cc(C(F)(F)F)c1)c1ccnc2ccc(OC)cc12 (some centres undefined)
pIC50 (HepG2): 6.16
pIC50 (Hep 3B2 [1]): 6.42
pIC50 [2]: 6.04
pIC50 [3]: 6.22
pIC50 [4]: 6.38
pIC50 (Mahlavu [5]): 6.21

SMILES: C=CC1CN2CCC1CC2[C@@H](NC(=O)Nc1ccc(C(F)(F)F)cc1)c1ccnc2ccc(OC)cc12 (some centres undefined)
pIC50 (HepG2): 5.97
pIC50 (Hep 3B2 [1]): 6.23
pIC50 [2]: 6.10
pIC50 [3]: 6.38
pIC50 [4]: 6.21
pIC50 (Mahlavu [5]): 6.22

SMILES: C=CC1CN2CCC1CC2[C@@H](NC(=S)Nc1cc(C(F)(F)F)cc(C(F)(F)F)c1)c1ccnc2ccc(OC)cc12 (some centres undefined)
pIC50 (HepG2): 6.11
pIC50 (Hep 3B2 [1]): 6.54
pIC50 [2]: 6.11
pIC50 [3]: 6.47
pIC50 [4]: 6.43
pIC50 (Mahlavu [5]): 6.55
